According to ChEMBL document CHEMBL5724914, “Linking interpersonal differences in gut microbiota composition and drug biotransformation activity” (2024):

Tests used:
[1] = The drug is tested on Z-011 corresponding to mouse gut metagenome with ENA study accession number: PRJEB37062 and ENA sample accession number: ERS12561811 for biotransformation under anaerobic condition. The drug concentrations were measured over 9 timepoints collected between 0 and 24 hours of incubation by liquid-chromatography-coupled mass spectrometry (LC–MS); conditions: 2 µM
[2] = The drug is tested on WLS-240 corresponding to human gut metagenome with ENA study accession number: PRJEB37062 and ENA sample accession number: ERS12561773 for biotransformation under anaerobic condition. The drug concentrations were measured over 9 timepoints collected between 0 and 24 hours of incubation by liquid-chromatography-coupled mass spectrometry (LC–MS); conditions: 2 µM
[3] = The drug is tested on Z-010 corresponding to metagenome with ENA study accession number: PRJEB37062 and ENA sample accession number: ERS12561810 for biotransformation under anaerobic condition. The drug concentrations were measured over 9 timepoints collected between 0 and 24 hours of incubation by liquid-chromatography-coupled mass spectrometry (LC–MS); conditions: 2 µM
[4] = human gut metagenome, 24 h, 2 µM
[5] = The drug is tested on WLS-220 corresponding to human gut metagenome with ENA study accession number: PRJEB37062 and ENA sample accession number: ERS12561769 for biotransformation under anaerobic condition. The drug concentrations were measured over 9 timepoints collected between 0 and 24 hours of incubation by liquid-chromatography-coupled mass spectrometry (LC–MS); conditions: 2 µM
[6] = human gut metagenome, 24 h, 2 µM; remark: listed apart in the source
[7] = The drug is tested on Z-017 corresponding to mouse gut metagenome with ENA study accession number: PRJEB37062 and ENA sample accession number: ERS12561816 for biotransformation under anaerobic condition. The drug concentrations were measured over 9 timepoints collected between 0 and 24 hours of incubation by liquid-chromatography-coupled mass spectrometry (LC–MS); conditions: 2 µM
[8] = The drug is tested on Z-009 corresponding to pig gut metagenome with ENA study accession number: PRJEB37062 and ENA sample accession number: ERS12561809 for biotransformation under anaerobic condition. The drug concentrations were measured over 9 timepoints collected between 0 and 24 hours of incubation by liquid-chromatography-coupled mass spectrometry (LC–MS); conditions: 2 µM
[9] = human gut metagenome, 24 h, 2 µM; remark: listed apart in the source
[10] = The drug is tested on Z-013 corresponding to rabbit gut metagenome with ENA study accession number: PRJEB37062 and ENA sample accession number: ERS12561813 for biotransformation under anaerobic condition. The drug concentrations were measured over 9 timepoints collected between 0 and 24 hours of incubation by liquid-chromatography-coupled mass spectrometry (LC–MS); conditions: 2 µM
[11] = human gut metagenome, 24 h, 2 µM; remark: listed apart in the source
[12] = human gut metagenome, 24 h, 2 µM; remark: listed apart in the source
[13] = The drug is tested on Z-023 corresponding to metagenome with ENA study accession number: PRJEB37062 and ENA sample accession number: ERS12561822 for biotransformation under anaerobic condition. The drug concentrations were measured over 9 timepoints collected between 0 and 24 hours of incubation by liquid-chromatography-coupled mass spectrometry (LC–MS); conditions: 2 µM
[14] = The drug is tested on WLS-090 corresponding to human gut metagenome with ENA study accession number: PRJEB37062 and ENA sample accession number: ERS12561753 for biotransformation under anaerobic condition. The drug concentrations were measured over 9 timepoints collected between 0 and 24 hours of incubation by liquid-chromatography-coupled mass spectrometry (LC–MS); conditions: 2 µM
[15] = The drug is tested on Z-025 corresponding to rabbit gut metagenome with ENA study accession number: PRJEB37062 and ENA sample accession number: ERS12561824 for biotransformation under anaerobic condition. The drug concentrations were measured over 9 timepoints collected between 0 and 24 hours of incubation by liquid-chromatography-coupled mass spectrometry (LC–MS); conditions: 2 µM
[16] = The drug is tested on Z-003 corresponding to pig gut metagenome with ENA study accession number: PRJEB37062 and ENA sample accession number: ERS12561803 for biotransformation under anaerobic condition. The drug concentrations were measured over 9 timepoints collected between 0 and 24 hours of incubation by liquid-chromatography-coupled mass spectrometry (LC–MS); conditions: 2 µM
[17] = human gut metagenome, 24 h, 2 µM; remark: listed apart in the source
[18] = human gut metagenome, 24 h, 2 µM; remark: listed apart in the source
[19] = The drug is tested on Z-030 corresponding to mouse gut metagenome with ENA study accession number: PRJEB37062 and ENA sample accession number: ERS12561829 for biotransformation under anaerobic condition. The drug concentrations were measured over 9 timepoints collected between 0 and 24 hours of incubation by liquid-chromatography-coupled mass spectrometry (LC–MS); conditions: 2 µM
[20] = human gut metagenome, 24 h, 2 µM; remark: listed apart in the source
Further: call rule not given here.

Compound	Bacterial Biotransformation [1]	Bacterial Biotransformation [2]	Bacterial Biotransformation [3]	Bacterial Biotransformation [4]	Bacterial Biotransformation [5]	Bacterial Biotransformation [6]	Bacterial Biotransformation [7]	Bacterial Biotransformation [8]	Bacterial Biotransformation [9]	Bacterial Biotransformation [10]	Bacterial Biotransformation [11]	Bacterial Biotransformation [12]	Bacterial Biotransformation [13]	Bacterial Biotransformation [14]	Bacterial Biotransformation [15]	Bacterial Biotransformation [16]	Bacterial Biotransformation [17]	Bacterial Biotransformation [18]	Bacterial Biotransformation [19]	Bacterial Biotransformation [20]
c1ccc2[nH]c(-c3cscn3)nc2c1 [THIABENDAZOLE]	Compound NOT metabolized	Compound metabolized	Compound NOT metabolized	Compound NOT metabolized	Compound NOT metabolized	Compound NOT metabolized	Compound NOT metabolized	Compound NOT metabolized	Compound NOT metabolized	Compound NOT metabolized	Compound NOT metabolized	Compound NOT metabolized	Compound NOT metabolized	Compound metabolized	Compound NOT metabolized	Compound NOT metabolized	Compound NOT metabolized	Compound NOT metabolized	Compound NOT metabolized	Compound NOT metabolized
CCN(CC)CCNC(=O)c1cc(S(C)(=O)=O)ccc1OC [TIAPRIDE]	Compound metabolized	Compound metabolized	Compound NOT metabolized	Compound NOT metabolized	Compound metabolized	Compound NOT metabolized	Compound NOT metabolized	Compound NOT metabolized	Compound NOT metabolized	Compound NOT metabolized	Compound metabolized	Compound NOT metabolized	Compound NOT metabolized	Compound metabolized	Compound NOT metabolized	Compound metabolized	Compound NOT metabolized	Compound metabolized	Compound NOT metabolized	Compound metabolized
CC(C)(C)NC[C@H](O)COc1nsnc1N1CCOCC1.O=C(O)/C=C\C(=O)O [TIMOLOL MALEATE]	Compound NOT metabolized	Compound NOT metabolized	Compound NOT metabolized	Compound NOT metabolized	Compound NOT metabolized	Compound NOT metabolized	Compound NOT metabolized	Compound NOT metabolized	Compound NOT metabolized	Compound NOT metabolized	Compound NOT metabolized	Compound NOT metabolized	Compound NOT metabolized	Compound NOT metabolized	Compound NOT metabolized	Compound NOT metabolized	Compound NOT metabolized	Compound NOT metabolized	Compound NOT metabolized	Compound NOT metabolized
CC[C@@]1(O)C(=O)OCc2c1cc1n(c2=O)Cc2cc3c(CN(C)C)c(O)ccc3nc2-1 [TOPOTECAN]	Compound NOT metabolized	Compound NOT metabolized	Compound NOT metabolized	Compound NOT metabolized	Compound NOT metabolized	Compound NOT metabolized	Compound NOT metabolized	Compound NOT metabolized	Compound NOT metabolized	Compound NOT metabolized	Compound NOT metabolized	Compound NOT metabolized	Compound NOT metabolized	Compound NOT metabolized	Compound NOT metabolized	Compound NOT metabolized	Compound NOT metabolized	Compound NOT metabolized	Compound NOT metabolized	Compound NOT metabolized
COc1cc(C(=O)NCc2ccc(OCCN(C)C)cc2)cc(OC)c1OC [TRIMETHOBENZAMIDE]	Compound NOT metabolized	Compound NOT metabolized	Compound NOT metabolized	Compound NOT metabolized	Compound NOT metabolized	Compound NOT metabolized	Compound NOT metabolized	Compound metabolized	Compound NOT metabolized	Compound NOT metabolized	Compound NOT metabolized	Compound NOT metabolized	Compound NOT metabolized	Compound NOT metabolized	Compound NOT metabolized	Compound NOT metabolized	Compound NOT metabolized	Compound NOT metabolized	Compound NOT metabolized	Compound NOT metabolized
